ChEMBL document CHEMBL1909046, “DrugMatrix in vitro pharmacology data”
Where a SMILES comes first, the peptide text is derived from it. Bridges are numbered along the chain shown (N, C = ends). [ ]: non-standard residue; d: D form. The star is where a group is joined. Threoninol(2S,3R) = C[C@@H](O)[C@H](CO)N*

Columns and labels:
[1] = target: T1, C-C chemokine receptor type 4 (Homo sapiens, UniProt P51679); type: cell membranes, Membrane; conditions: chem-1; note: in other assays of this panel Not Active means under 50% inhibition at 10 µM
T1 sequence (P51679 whole entry): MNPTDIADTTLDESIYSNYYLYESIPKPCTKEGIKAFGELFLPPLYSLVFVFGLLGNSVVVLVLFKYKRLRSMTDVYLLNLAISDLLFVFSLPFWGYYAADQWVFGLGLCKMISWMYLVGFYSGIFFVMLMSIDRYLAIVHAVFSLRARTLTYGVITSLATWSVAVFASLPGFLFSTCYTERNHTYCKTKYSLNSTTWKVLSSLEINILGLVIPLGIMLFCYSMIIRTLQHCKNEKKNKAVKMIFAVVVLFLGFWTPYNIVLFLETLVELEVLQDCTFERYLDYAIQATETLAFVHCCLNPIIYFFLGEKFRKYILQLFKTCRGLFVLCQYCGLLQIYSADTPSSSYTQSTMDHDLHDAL

[2] = target: 5-hydroxytryptamine receptor 2B (Homo sapiens, UniProt P41595); type: cell membranes, CHO-K1, Membrane; note: in other assays of this panel Not Active means under 50% inhibition at 10 µM
Chain of 5-hydroxytryptamine receptor 2B (P41595 whole entry): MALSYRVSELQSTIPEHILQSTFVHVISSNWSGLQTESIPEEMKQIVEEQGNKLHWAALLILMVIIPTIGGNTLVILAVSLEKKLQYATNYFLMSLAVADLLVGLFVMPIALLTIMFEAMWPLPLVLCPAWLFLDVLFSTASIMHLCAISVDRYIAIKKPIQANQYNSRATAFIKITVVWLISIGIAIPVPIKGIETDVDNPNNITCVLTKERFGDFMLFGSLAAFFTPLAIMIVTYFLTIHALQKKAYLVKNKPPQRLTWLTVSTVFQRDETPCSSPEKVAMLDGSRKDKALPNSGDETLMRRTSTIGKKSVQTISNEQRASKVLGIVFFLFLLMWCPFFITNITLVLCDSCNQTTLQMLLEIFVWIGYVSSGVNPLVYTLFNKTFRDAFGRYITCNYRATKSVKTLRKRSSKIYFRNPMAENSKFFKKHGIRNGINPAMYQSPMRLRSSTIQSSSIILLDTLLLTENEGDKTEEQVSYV

[3] = DRUGMATRIX: Calcium Channel Type L, Benzothiazepine radioligand binding (ligand: [3H] Diltiazem); type: cell membranes, Rattus norvegicus, Wistar, Brain, Membrane; conditions: Not Active = under 50% inhibition at 10 µM
D(1A) dopamine receptor = D(1A) dopamine receptor (Homo sapiens, UniProt P21728); experiment: DRUGMATRIX: Dopamine D1 radioligand binding (ligand: [3H] SCH-23390); type: cell membranes, Membrane; conditions: cho; Not Active = under 50% inhibition at 10 µM
Chain of D(1A) dopamine receptor (P21728 whole entry): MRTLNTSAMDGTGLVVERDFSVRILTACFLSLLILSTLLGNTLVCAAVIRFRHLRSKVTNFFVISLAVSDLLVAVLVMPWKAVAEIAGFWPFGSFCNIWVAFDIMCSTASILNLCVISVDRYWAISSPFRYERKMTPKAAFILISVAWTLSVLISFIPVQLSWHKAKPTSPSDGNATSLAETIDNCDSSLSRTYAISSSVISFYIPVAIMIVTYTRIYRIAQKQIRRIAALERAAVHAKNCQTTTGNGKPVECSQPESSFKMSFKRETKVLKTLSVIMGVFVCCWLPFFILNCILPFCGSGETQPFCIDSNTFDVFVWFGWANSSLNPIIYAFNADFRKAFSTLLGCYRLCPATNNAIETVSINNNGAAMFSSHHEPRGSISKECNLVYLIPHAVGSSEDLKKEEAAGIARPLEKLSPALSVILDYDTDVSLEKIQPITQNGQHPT

[4] = target: Mitogen-activated protein kinase 1 (Homo sapiens, UniProt P28482); experiment: DRUGMATRIX: Protein Serine/Threonine Kinase, ERK2 enzyme inhibition (substrate: Myelin Basic Protein); design: species or system Escherichia coli; conditions: Not Active = under 50% inhibition at 10 µM
Chain of Mitogen-activated protein kinase 1 (P28482 whole entry): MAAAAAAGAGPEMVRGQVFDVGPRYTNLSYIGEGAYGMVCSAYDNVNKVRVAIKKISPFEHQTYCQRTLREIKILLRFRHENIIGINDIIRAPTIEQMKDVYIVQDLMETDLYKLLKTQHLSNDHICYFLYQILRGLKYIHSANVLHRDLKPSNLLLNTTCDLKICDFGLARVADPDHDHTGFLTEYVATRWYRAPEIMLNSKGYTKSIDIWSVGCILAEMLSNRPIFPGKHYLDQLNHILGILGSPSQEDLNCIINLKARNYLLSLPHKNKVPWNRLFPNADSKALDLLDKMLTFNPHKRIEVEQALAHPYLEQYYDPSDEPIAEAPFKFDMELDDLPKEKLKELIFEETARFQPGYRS

Histamine H2 receptor = Histamine H2 receptor (Homo sapiens, UniProt P25021); type: cell membranes, CHO-K1, Membrane; note: in other assays of this panel Not Active means under 50% inhibition at 10 µM
Chain of Histamine H2 receptor (P25021 whole entry): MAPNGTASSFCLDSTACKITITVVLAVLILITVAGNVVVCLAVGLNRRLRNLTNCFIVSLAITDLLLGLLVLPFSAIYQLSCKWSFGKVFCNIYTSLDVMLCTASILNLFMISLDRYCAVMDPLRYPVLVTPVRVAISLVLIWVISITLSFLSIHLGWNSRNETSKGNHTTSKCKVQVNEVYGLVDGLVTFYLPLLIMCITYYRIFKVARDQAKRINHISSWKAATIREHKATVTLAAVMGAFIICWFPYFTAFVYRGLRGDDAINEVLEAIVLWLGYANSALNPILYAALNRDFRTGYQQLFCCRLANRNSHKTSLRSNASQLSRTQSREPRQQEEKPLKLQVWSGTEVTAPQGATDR

SMILES | IC50 [1] | IC50 ([2]; cho-k1) | IC50 [3] | Ki [3] | IC50 (D(1A) dopamine receptor) | IC50 [4] | IC50 (Histamine H2 receptor; cho-k1) | IC50 ([2]; read-out: IC50) [nM] | Ki ([2]; read-out: Ki) [nM] | Ki [1] | Ki ([2]; cho-k1) | Ki (D(1A) dopamine receptor) | Ki [4] | Ki (Histamine H2 receptor; cho-k1) | IC50 (Histamine H2 receptor; read-out: IC50) [nM] | Ki (Histamine H2 receptor; read-out: Ki) [nM]
COc1ccccc1C(=O)N1CCC(Cc2ccccc2)CC1 | Not Active | Not Active | Not Active | Not Active | Not Active | Not Active | Not Active |  |  |  |  |  |  |  |  | 
Cc1ccccc1C(=O)N1CCC(Cc2ccccc2)CC1 | Not Active |  | Not Active | Not Active | Not Active | Not Active | Not Active | 1860 | 1180 |  |  |  |  |  |  | 
O=C1CC[C@H](N2C(=O)c3ccccc3C2=O)C(=O)N1 | Not Active | Not Active | Not Active | Not Active | Not Active | Not Active | Not Active |  |  |  |  |  |  |  |  | 
N=C(Nc1ccccc1)Nc1ccccc1 | Not Active | Not Active | Not Active | Not Active | Not Active | Not Active | Not Active |  |  |  |  |  |  |  |  | 
C[C@@H](O)[C@H](CO)NC(=O)[C@@H]1CSSC[C@H](NC(=O)[C@H](N)Cc2ccccc2)C(=O)N[C@@H](Cc2ccccc2)C(=O)N[C@H](Cc2c[nH]c3ccccc23)C(=O)N[C@@H](CCCCN)C(=O)N[C@@H]([C@@H](C)O)C(=O)N1 (H-[dF]CF[dW]KTC-{Threoninol(2S,3R)}; disulfide 2-7) | Not Active | Not Active | Not Active | Not Active | Not Active | Not Active | Not Active |  |  |  |  |  |  |  |  | 
S=C=Nc1cccc2ccccc12 [1-NAPHTHYLISOTHIOCYANATE] | Not Active |  | Not Active | Not Active |  | Not Active | Not Active | 25200 | 16000 |  |  |  |  |  |  | 
C[C@](O)(CS(=O)(=O)c1ccc(F)cc1)C(=O)Nc1ccc(C#N)c(C(F)(F)F)c1 [(R)-BICALUTAMIDE] | Not Active | Not Active | Not Active | Not Active | Not Active | Not Active | Not Active |  |  |  |  |  |  |  |  | 
CCCC(=O)Nc1ccc(OCC(O)CNC(C)C)c(C(C)=O)c1 (stereo not drawn) [ACEBUTOLOL] | Not Active | Not Active | Not Active | Not Active | Not Active | Not Active | Not Active |  |  |  |  |  |  |  |  | 
CC(=O)Nc1ccc(O)cc1 [ACETAMINOPHEN] | Not Active | Not Active | Not Active | Not Active | Not Active | Not Active | Not Active |  |  |  |  |  |  |  |  | 
COc1cc2c(c3oc(=O)c4c(c13)CCC4=O)[C@@H]1C=CO[C@@H]1O2 [AFLATOXIN] | Not Active | Not Active | Not Active | Not Active | Not Active | Not Active | Not Active |  |  | Not Active | Not Active | Not Active | Not Active | Not Active |  | 
N=C(N)NC(=O)c1nc(Cl)c(N)nc1N [AMILORIDE] | Not Active | Not Active | Not Active | Not Active | Not Active | Not Active | Not Active |  |  |  |  |  |  |  |  | 
Cc1cc(=O)n(-c2ccccc2)n1C [ANTIPYRINE] | Not Active | Not Active | Not Active | Not Active | Not Active | Not Active | Not Active |  |  |  |  |  |  |  |  | 
CN1C(=O)COc2c(C(=O)NC3CN4CCC3CC4)cc(Cl)cc21 (stereo not drawn) [AZASETRON] | Not Active | Not Active | Not Active | Not Active | Not Active | Not Active | Not Active |  |  |  |  |  |  |  |  | 
C[C@H]1C[C@H]2[C@@H]3CCC4=CC(=O)C=C[C@]4(C)[C@@]3(Cl)[C@@H](O)C[C@]2(C)[C@@]1(O)C(=O)CO [BECLOMETHASONE] | Not Active | Not Active | Not Active | Not Active | Not Active | Not Active | Not Active |  |  |  |  |  |  |  |  | 
CCOC(=O)[C@H](CCc1ccccc1)N[C@H]1CCc2ccccc2N(CC(=O)O)C1=O [BENAZEPRIL] | Not Active | Not Active | Not Active | Not Active | Not Active | Not Active | Not Active |  |  |  |  |  |  |  |  | 
Nc1c(CC(=O)O)cccc1C(=O)c1ccc(Br)cc1 [BROMFENAC] | Not Active | Not Active | Not Active | Not Active | Not Active | Not Active | Not Active |  |  |  |  |  |  |  |  | 
CCCCN1CCCCC1C(=O)Nc1c(C)cccc1C.Cl (stereo not drawn) [BUPIVACAINE HYDROCHLORIDE] | Not Active | Not Active | Not Active | Not Active | Not Active | Not Active | Not Active |  |  |  |  |  |  |  |  | 

SMILES | IC50 [1] | IC50 ([2]; cho-k1) | IC50 [3] | Ki [3] | IC50 (D(1A) dopamine receptor) | IC50 [4] | IC50 (Histamine H2 receptor; cho-k1) | IC50 ([2]; read-out: IC50) [nM] | Ki ([2]; read-out: Ki) [nM] | Ki [1] | Ki ([2]; cho-k1) | Ki (D(1A) dopamine receptor) | Ki [4] | Ki (Histamine H2 receptor; cho-k1) | IC50 (Histamine H2 receptor; read-out: IC50) [nM] | Ki (Histamine H2 receptor; read-out: Ki) [nM]
O=C1CC2(CCCC2)CC(=O)N1CCCCN1CCN(c2ncccn2)CC1 [BUSPIRONE] | Not Active |  | Not Active | Not Active | Not Active | Not Active | Not Active | 750 | 477 |  |  |  |  |  |  | 
C[C@@]12C(=O)OC(=O)[C@]1(C)[C@H]1CC[C@@H]2O1 [CANTHARIDIN] | Not Active | Not Active | Not Active | Not Active | Not Active | Not Active | Not Active |  |  |  |  |  |  |  |  | 
O=NN(CCCl)C(=O)NCCCl [CARMUSTINE] | Not Active | Not Active | Not Active | Not Active | Not Active | Not Active | Not Active |  |  |  |  |  |  |  |  | 
CC1=C(C(=O)O)N2C(=O)[C@@H](NC(=O)[C@H](N)c3ccccc3)[C@H]2SC1 [CEPHALEXIN ANHYDROUS] | Not Active | Not Active | Not Active | Not Active | Not Active | Not Active | Not Active |  |  |  |  |  |  |  |  | 
O=C(N[C@H](CO)[C@H](O)c1ccc([N+](=O)[O-])cc1)C(Cl)Cl [CHLORAMPHENICOL] | Not Active | Not Active | Not Active | Not Active | Not Active | Not Active | Not Active |  |  |  |  |  |  |  |  | 
ClC(Cl)Cl [CHLOROFORM] | Not Active | Not Active | Not Active | Not Active | Not Active | Not Active | Not Active |  |  |  |  |  |  |  |  | 
C=C1CC[C@H](O)C/C1=C/C=C1\CCC[C@]2(C)[C@@H]([C@H](C)CCCC(C)C)CC[C@@H]12 [CHOLECALCIFEROL] | Not Active | Not Active | Not Active | Not Active | Not Active | Not Active | Not Active |  |  |  |  |  |  |  |  | 
C[N+](C)(C)CCO.[Cl-] [CHOLINE CHLORIDE] | Not Active | Not Active | Not Active | Not Active | Not Active | Not Active | Not Active |  |  |  |  |  |  |  |  | 
CCOC(=O)C(C)(C)Oc1ccc(Cl)cc1 [CLOFIBRATE] | Not Active | Not Active | Not Active | Not Active | Not Active | Not Active | Not Active |  |  |  |  |  |  |  |  | 
CC(=O)OCC(=O)[C@@]1(O)CC[C@H]2[C@@H]3CCC4=CC(=O)CC[C@]4(C)[C@H]3C(=O)C[C@@]21C [CORTISONE ACETATE] | Not Active | Not Active | Not Active | Not Active | Not Active | Not Active | Not Active |  |  |  |  |  |  |  |  | 
O=c1ccc2ccccc2o1 [COUMARIN] | Not Active |  | Not Active | Not Active | Not Active | Not Active | Not Active |  |  |  | Not Active |  |  |  |  | 
C[C@@H]1C[C@@H]([C@H](O)CC2CC(=O)NC(=O)C2)C(=O)[C@@H](C)C1 [CYCLOHEXIMIDE] | Not Active | Not Active | Not Active | Not Active | Not Active | Not Active | Not Active |  |  |  |  |  |  |  |  | 
C/C=C/C[C@@H](C)[C@@H](O)[C@H]1C(=O)N[C@@H](CC)C(=O)N(C)CC(=O)N(C)[C@@H](CC(C)C)C(=O)N[C@@H](C(C)C)C(=O)N(C)[C@@H](CC(C)C)C(=O)N[C@@H](C)C(=O)N[C@H](C)C(=O)N(C)[C@@H](CC(C)C)C(=O)N(C)[C@@H](CC(C)C)C(=O)N(C)[C@@H](C(C)C)C(=O)N1C [CYCLOSPORINE] | Not Active | Not Active | Not Active | Not Active | Not Active | Not Active | Not Active |  |  |  |  |  |  |  |  | 
CN(C)/N=N/c1[nH]cnc1C(N)=O [DACARBAZINE] | Not Active | Not Active | Not Active | Not Active | Not Active | Not Active | Not Active |  |  |  |  |  |  |  |  | 
COc1ccc2c(c1)[C@]13CCCC[C@@H]1[C@H](C2)N(C)CC3 [DEXTROMETHORPHAN] | Not Active | Not Active | Not Active | Not Active | Not Active | Not Active | Not Active |  |  |  |  |  |  |  |  | 
CN(C)c1ccc(C(=C2C=CC(=[N+](C)C)C=C2)c2ccc(N(C)C)cc2)cc1.[Cl-] [GENTIAN VIOLET] | Not Active | Not Active | Not Active | Not Active |  | Not Active |  |  |  |  |  |  |  |  | 1160 | 1140
